Experimental data taken from patent US8846951B2 (AbbVie Inc., priority 2009, dated 2014).
Read-outs that look alike come from different tables or passages of the source.

Columns and labels:
[1] = biological target: T1, 5HT2C receptors (Homo sapiens, UniProt P28335); experiment: Human 5-HT2C functional high throughput screening assay in CHO-K1 cells (calcium flux); assay type: cell-based; parameters: expressed in transfected cells; host or cells: CHO-K1 cells; conditions: for EC50: CHO-K1 cells, calcium flux; for Emax: 5-HT2C, maximum functional response as percentage relative to the effect of serotonin
T1 sequence (P28335 33-458): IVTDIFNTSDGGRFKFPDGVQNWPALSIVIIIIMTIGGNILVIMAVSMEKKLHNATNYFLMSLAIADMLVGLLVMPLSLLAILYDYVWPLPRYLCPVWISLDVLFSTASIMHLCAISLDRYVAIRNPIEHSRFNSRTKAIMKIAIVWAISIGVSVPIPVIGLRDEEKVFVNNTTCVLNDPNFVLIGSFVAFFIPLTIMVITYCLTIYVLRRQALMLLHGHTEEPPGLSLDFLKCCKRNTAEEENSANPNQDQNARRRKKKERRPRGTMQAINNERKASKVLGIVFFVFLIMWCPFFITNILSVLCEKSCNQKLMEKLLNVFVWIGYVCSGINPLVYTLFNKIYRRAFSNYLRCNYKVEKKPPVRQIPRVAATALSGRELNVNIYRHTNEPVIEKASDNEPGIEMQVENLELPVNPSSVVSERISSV
Outline: (§1)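 FLIPR calcium readout, ex 480/em 530 nm, 25 °C, 3 min post-addition; agonist response normalized to serotonin, 4-parameter fit → EC50, Emax (% serotonin). Cells: frozen CHO-K1 stable lines, serum-free overnight, Ca4 dye + 2.5 mM probenecid, 60 min RT dark.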

[2] = biological target: T2, 5HT2B receptors (Homo sapiens, UniProt P41595); experiment: Human 5-HT2B functional high throughput screening assay in CHO-K1 cells (calcium flux); assay type: cell-based; conditions: for EC50: CHO-K1 cells, calcium flux
T2 construct: expressed in transfected cells; host or cells: CHO-K1 cells
Outline: as §1

[3] = 5-HT2C agonist activity, read-out: EC50
[4] = 5-HT2B agonist activity, read-out: EC50
[5] = 5-HT2B, maximum functional response as percentage relative to the effect of serotonin
[6] = CHO-K1, 5-HT2B, maximum functional response as percentage relative to the effect of serotonin, read-out: Emax

T2 sequence (P41595 whole entry): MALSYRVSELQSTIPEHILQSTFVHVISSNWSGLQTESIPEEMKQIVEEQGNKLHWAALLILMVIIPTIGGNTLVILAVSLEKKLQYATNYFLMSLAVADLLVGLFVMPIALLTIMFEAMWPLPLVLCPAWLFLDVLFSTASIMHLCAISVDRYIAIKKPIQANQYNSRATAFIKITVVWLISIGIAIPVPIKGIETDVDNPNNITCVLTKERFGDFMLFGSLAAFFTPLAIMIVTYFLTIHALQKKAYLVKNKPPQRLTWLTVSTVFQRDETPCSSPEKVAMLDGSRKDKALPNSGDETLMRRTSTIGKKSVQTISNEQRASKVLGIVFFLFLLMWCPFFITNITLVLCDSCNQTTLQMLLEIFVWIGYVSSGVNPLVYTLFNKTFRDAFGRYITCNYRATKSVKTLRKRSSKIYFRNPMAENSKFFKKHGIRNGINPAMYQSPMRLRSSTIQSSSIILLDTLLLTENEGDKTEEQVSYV

| Compound | EC50 [1, 3] | Emax ([1]; CHO-K1, read-out: Emax) | EC50 [2, 4] | Emax [2, 5] | Emax [2, 6] | Emax ([1]; CHO-K1) | EC50 ([1]; EC50, 5-HT2C agonist activity) | Emax ([2]; CHO-K1) | EC50 ([2]; EC50, 5-HT2B agonist activity) | Emax [1] |
| --- | --- | --- | --- | --- | --- | --- | --- | --- | --- | --- |
| CN1C[C@H]2CNC(=O)c3cc(-c4cccc(F)c4)ccc3[C@@H]2C1 (relative stereo) [Example 76, Trans-8-(3-fluorophenyl)-2-methyl-1,2,3,3a,4,5-hexahydrobenzo[e]pyrrolo[3,4-c]azepin-6(10bH)-one] | 11 nM | > 120% | > 10000 nM | inactive |  |  |  |  |  |  |
| Brc1cccc2c1[C@H]1CNC[C@@H]1CCO2 (relative stereo) [Example 377, Trans-10-bromo-2,3,3a,4,5,10b-hexahydro-1H-[1]benzoxepino[4,5-c]pyrrole] |  |  |  |  |  | 100% | 200 nM | 30% | 30 nM |  |
| O=C1NC[C@@H]2CNC[C@H]2c2sccc21 (relative stereo) [Example 104, Trans-6,6a,7,8,9,9a-hexahydropyrrolo[3,4-e]thieno[3,2-c]azepin-4(5H)-one] | 900 nM |  | > 10000 nM | inactive |  | > 120% |  |  |  |  |
| Trans-8-(2-methoxyphenethoxy)-2-methyl-1,2,3,3a,4,5-hexahydrobenzo[e]pyrrolo[3,4-c]azepin-6(10bH)-one [Example 183] | 40 nM |  | > 10000 nM | inactive |  |  |  |  |  | 65% |
| O=S(=O)(c1cccc(Cl)c1)N1Cc2cccnc2[C@@H]2CNC[C@H]2C1 (relative stereo) [Example 359, Trans-6-[(3-chlorophenyl)sulfonyl]-5,6,7,7a,8,9,10,10a-octahydropyrido[3,2-c]pyrrolo[3,4-e]azepine] |  |  |  |  |  | 80% | 100 nM | 30% | 500 nM |  |
| CN1CC[C@@H]2CNC[C@H]2c2ccccc21 (relative stereo) [Example 327, Trans-6-methyl-1,2,3,3a,4,5,6,10b-octahydropyrrolo[3,4-d][1]benzazepine] |  |  |  |  |  | 95% | 10 nM | 75% | 200 nM |  |
| COc1cc(OC)c2c(c1)C(=O)NC[C@@H]1CNC[C@@H]21 (relative stereo) [Example 100, Trans-8,10-dimethoxy-1,2,3,3a,4,5-hexahydrobenzo[c]pyrrolo[3,4-e]azepin-6(10bH)-one] |  |  |  |  |  | > 120% | 3 nM | 70% | 900 nM |  |
| Nc1ccc2c(c1)C(=O)NC[C@@H]1CNC[C@H]21 (relative stereo) [Example 145, Cis-8-amino-1,2,3,3a,4,5-hexahydrobenzo[e]pyrrolo[3,4-c]azepin-6(10bH)-one] |  |  |  | inactive |  | 15% | 3000 nM |  | > 10000 nM |  |
| Clc1ccc2c(c1)[C@H]1CNC[C@@H]1CCO2 [Example 233, (3aR,10bS)-9-Chloro-2,3,3a,4,5,10b-hexahydro-1H-[1]benzoxepino[4,5-c]pyrrole] |  |  |  |  |  | > 120% |  | 55% |  |  |
| CN1C[C@H]2CNC(=O)c3c(OC(F)(F)F)cccc3[C@@H]2C1 [Example 112, (3aR,10bR)-2-Methyl-7-(trifluoromethoxy)-1,2,3,3a,4,5-hexahydrobenzo[c]pyrrolo[3,4-e]azepin-6(10bH)-one] |  |  |  | inactive |  | 90% |  |  | > 10000 nM |  |
| CN1C[C@@H]2CNC[C@H]2c2ccc(F)cc2C1=O [Example 226, (3aS,10bR)-8-Fluoro-5-methyl-1,2,3,3a,4,5-hexahydrobenzo[c]pyrrolo[3,4-e]azepin-6(10bH)-one] |  |  |  | inactive |  | > 120% |  |  | > 10000 nM |  |
| c1cc(-c2ccncc2)c2c(c1)[C@H]1CNC[C@@H]1CCO2 (relative stereo) [Example 369, Trans-7-(pyridin-4-yl)-2,3,3a,4,5,10b-hexahydro-1H-[1]benzoxepino[4,5-c]pyrrole] | 300 nM |  | > 10000 nM | inactive |  | 90% |  |  |  |  |

More lines, main results first:

| EC50 [1, 3] | Emax ([1]; CHO-K1, read-out: Emax) | EC50 [2, 4] | Emax [2, 5] | Emax [2, 6] | Compound | Emax ([1]; CHO-K1) | EC50 ([1]; EC50, 5-HT2C agonist activity) | Emax ([2]; CHO-K1) | EC50 ([2]; EC50, 5-HT2B agonist activity) | Emax [1] |
| --- | --- | --- | --- | --- | --- | --- | --- | --- | --- | --- |
| 90 nM | 90% | > 10000 nM | inactive |  | Fc1ccc(-c2cccc3c2OCC[C@H]2CNC[C@H]32)cc1 (relative stereo) [Example 399, Trans-7-(4-fluorophenyl)-2,3,3a,4,5,10b-hexahydro-1H-[1]benzoxepino[4,5-c]pyrrole] |  |  |  |  |  |
| 1 nM | 100% | > 10000 nM | inactive |  | CC(=O)c1ccc(-c2ccc3c(c2)C(=O)NC[C@@H]2CNC[C@@H]32)s1 (relative stereo) [Example 296, Trans-8-(5-acetyl-2-thienyl)-2,3,3a,4,5,10b-hexahydropyrrolo[3,4-d][2]benzazepin-6(1H)-one] |  |  |  |  |  |
| 900 nM | 100% | > 10000 nM | inactive |  | COc1ccc2c(c1)C(=O)NC[C@@H]1CN(Cc3ccccc3)C[C@H]21 (relative stereo) [Example 130, Cis-2-benzyl-8-methoxy-1,2,3,3a,4,5-hexahydrobenzo[e]pyrrolo[3,4-c]azepin-6(10bH)-one] |  |  |  |  |  |
| 5 nM | 100% | > 10000 nM | inactive |  | CC(C)c1cccc(-c2ccc3c(c2)C(=O)NC[C@@H]2CN(C)C[C@@H]32)c1 (relative stereo) [Example 379, Trans-8-(3-isopropylphenyl)-2-methyl-2,3,3a,4,5,10b-hexahydropyrrolo[3,4-d][2]benzazepin-6(1H)-one] |  |  |  |  |  |
|  | > 120% | > 10000 nM | inactive |  | COc1ccc(-c2ccc3c(c2)C(=O)NC[C@@H]2CN(C)C[C@@H]32)cc1 (relative stereo) [Example 131, Trans-8-(4-methoxyphenyl)-2-methyl-1,2,3,3a,4,5-hexahydrobenzo[e]pyrrolo[3,4-c]azepin-6(10bH)-one] |  |  |  |  |  |
| 5.8 nM | > 120% | > 10000 nM | inactive |  | CN1C[C@H]2CNC(=O)c3cc(-c4ccccc4F)ccc3[C@@H]2C1 (relative stereo) [Example 77, Trans-8-(2-fluorophenyl)-2-methyl-1,2,3,3a,4,5-hexahydrobenzo[e]pyrrolo[3,4-c]azepin-6(10bH)-one] |  |  |  |  |  |
| < 0.1 nM | > 120% | > 10000 nM | inactive |  | O=C1NC[C@H]2CNC[C@@H]2c2ccc(-c3ccc(F)cc3)cc21 [Example 220, (3aR,10bS)-8-(4-Fluorophenyl)-1,2,3,3a,4,5-hexahydrobenzo[e]pyrrolo[3,4-c]azepin-6(10bH)-one] |  |  |  |  |  |
| 10 nM | 105% | > 10000 nM | inactive |  | CNC(=O)c1cccc(-c2ccc3c(c2)C(=O)NC[C@@H]2CNC[C@@H]32)c1 (relative stereo) [Example 381, N-Methyl-3-[trans-6-oxo-1,2,3,3a,4,5,6,10b-octahydropyrrolo[3,4-d][2]benzazepin-8-yl]benzamide] |  |  |  |  |  |
| 100 nM | 85% | 90 nM |  | 90% | O=S(=O)(c1ccccc1OC(F)(F)F)N1Cc2cccnc2[C@@H]2CNC[C@H]2C1 (relative stereo) [Example 364, Trans-6-{[2-(trifluoromethoxy)phenyl]sulfonyl}-5,6,7,7a,8,9,10,10a-octahydropyrido[3,2-c]pyrrolo[3,4-e]azepine] |  |  |  |  |  |
| 600 nM | > 120% | 5000 nM |  | 15% | c1ccc(-c2ccc3c(c2)[C@H]2CNC[C@@H]2CCO3)cc1 (relative stereo) [Example 215, Trans-9-phenyl-2,3,3a,4,5,10b-hexahydro-1H-[1]benzoxepino[4,5-c]pyrrole] |  |  |  |  |  |
| 7 nM | > 120% | > 10000 nM | inactive |  | O=C1NC[C@@H]2CNC[C@H]2c2ccc(C3=CCOCC3)cc21 (relative stereo) [Example 241, Trans-8-(3,6-dihydro-2H-pyran-4-yl)-1,2,3,3a,4,5-hexahydrobenzo[c]pyrrolo[3,4-e]azepin-6(10bH)-one] |  |  |  |  |  |
| 300 nM | > 120% | > 10000 nM | inactive |  | C[C@H](Cc1ccccc1)Oc1ccc2c(c1)C(=O)NC[C@@H]1CN(Cc3ccccc3)C[C@@H]21 (mixture of isomers) [Example 118, Trans-2-benzyl-8-((R)-1-phenylpropan-2-yloxy)-1,2,3,3a,4,5-hexahydrobenzo[e]pyrrolo[3,4-c]azepin-6(10bH)-one] |  |  |  |  |  |
| 2 nM | 90% | > 10000 nM | inactive |  | CC(C)CC(O)c1cccc(-c2ccc3c(c2)C(=O)NC[C@H]2CN(C)C[C@H]32)c1 (stereo partly drawn) [Example 312, (3aS,10bS)-8-[3-(1-Hydroxy-3-methylbutyl)phenyl]-2-methyl-2,3,3a,4,5,10b-hexahydropyrrolo[3,4-d][2]benzazepin-6(1H)-one] |  |  |  |  |  |
